The structures appear in SMILES notation.

human Kv1.3, sequence (P22001 whole entry): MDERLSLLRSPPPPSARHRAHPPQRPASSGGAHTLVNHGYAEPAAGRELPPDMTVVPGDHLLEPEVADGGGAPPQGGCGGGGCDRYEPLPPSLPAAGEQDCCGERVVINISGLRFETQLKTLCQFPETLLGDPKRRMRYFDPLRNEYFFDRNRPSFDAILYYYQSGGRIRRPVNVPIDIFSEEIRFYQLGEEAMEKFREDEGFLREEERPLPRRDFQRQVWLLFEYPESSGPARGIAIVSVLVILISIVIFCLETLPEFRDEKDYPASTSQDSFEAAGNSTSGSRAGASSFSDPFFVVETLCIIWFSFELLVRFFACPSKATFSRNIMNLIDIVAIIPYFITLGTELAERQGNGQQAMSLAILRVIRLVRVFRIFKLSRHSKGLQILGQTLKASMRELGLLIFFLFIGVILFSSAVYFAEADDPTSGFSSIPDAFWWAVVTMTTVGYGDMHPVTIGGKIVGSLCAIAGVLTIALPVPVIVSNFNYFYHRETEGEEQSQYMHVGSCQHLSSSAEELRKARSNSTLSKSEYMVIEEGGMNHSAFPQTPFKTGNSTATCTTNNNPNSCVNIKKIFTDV

This assay concerns the target human Kv1.3 (Homo sapiens (Human), UniProt P22001). Nature of the assay: Kv1.3 potency evaluation, automated patch clamp electrophysiology (QPatch HT) in CHO-Kv1.3 cells. In kind it is cell-based. The conditions noted are these: whole-cell QPatch HT, % inhibition of charge, step to +30 mV, four concentrations, N≥3 cells, read-out: hKv1.3 IC50. The gist of the method: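 Automated whole-cell patch clamp in CHO cells stably expressing human Kv1.3; steps from −80 to +30 mV (500 ms) at 0.067 Hz. Four cumulative concentrations after vehicle (0.1-0.3% DMSO); charge inhibition vs vehicle fitted by four-parameter logistic for IC50, N≥3 cells.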
Background: The patch-clamp technique gives a direct electrical read-out from membranes.
As a reminder, the IC50 is the midpoint of a concentration-inhibition curve. Regarding `CCCS(=O)(=O)N(Cc1ccc(Cl)c(Cl)c1)C12CC(C3=NC(C)(C)[C@H](C(=O)NCCCC(F)(F)F)N3)(C1)C2` (mixture of isomers) [Example 216], the IC50 came out at 163 nM.
For `CC1(C)N=C(C23CC(N(Cc4ccc(C(F)(F)F)cc4)S(=O)(=O)c4ccc(F)cc4)(C2)C3)N[C@H]1C(=O)NCCC(F)(F)F` (mixture of isomers) [Example 217], the IC50 is 167 nM.
Consider `C[C@]1(C(=O)NCC2CC2)CN=C(C23CC(N(Cc4ccc(C(F)(F)F)cc4)S(=O)(=O)c4ccc(F)cc4)(C2)C3)N1` (mixture of isomers) [Example 218], for which the IC50 was determined as 168 nM.
For the molecule `Cc1ccccc1S(=O)(=O)N(Cc1ccc(Cl)cc1)C12CC(C3=NC(C)(C)[C@H](C(=O)NCCC(F)(F)F)N3)(C1)C2` (mixture of isomers) [Example 219], the IC50 stood at 168 nM.
For `CC1(C)N=C(C23CC(N(Cc4ccc(C(F)(F)F)c(Cl)c4)S(=O)(=O)c4ccccc4)(C2)C3)N[C@H]1C(=O)NCCC(F)(F)F` (mixture of isomers) [Example 221], the IC50 was 169 nM.
Take `CC(F)(F)CCS(=O)(=O)N(Cc1ccc(Cl)c(F)c1)C12CC(C3=NC(C)(C)[C@H](C(=O)NCC(F)(F)C(F)(F)F)N3)(C1)C2` (mixture of isomers) [Example 222]: the IC50 came out at 170 nM.
Consider `CC1(C)N=C(C23CC(N(Cc4ccc(Cl)c(C#N)c4)S(=O)(=O)c4ccccc4)(C2)C3)N[C@H]1C(=O)NCCC(F)(F)F` (mixture of isomers) [Example 223], for which the IC50 came out at 177 nM.
On to `CC1(C)N=C(C23CC(N(Cc4ccc(Cl)c(F)c4)S(=O)(=O)c4ccccc4O)(C2)C3)N[C@H]1C(=O)NCCC(F)(F)F` (mixture of isomers) [Example 225], for which the IC50 turned out to be 182 nM.
On to `CC1(C)N=C(C23CC(N(Cc4ccc(Cl)c(Cl)c4)S(=O)(=O)c4ccccc4O)(C2)C3)N[C@H]1C(=O)NCCC(F)(F)F` (mixture of isomers) [Example 226], for which the IC50 came to 185 nM.
For the molecule `C[C@]1(C(=O)NCC2CC(F)(F)C2)CN=C(C23CC(N(Cc4ccc(C(F)(F)F)cc4)S(=O)(=O)c4ccc(F)cc4)(C2)C3)N1` (mixture of isomers) [Example 227], the IC50 is 186 nM.
In the case of `CC1(NC(=O)[C@@]2(C)CN=C(C34CC(N(Cc5ccc(C(F)(F)F)cc5)S(=O)(=O)c5ccc(F)cc5)(C3)C4)N2)CCC1` (mixture of isomers) [Example 228], the IC50 was found to be 190 nM.
As to `CN(C)C(=O)[C@]1(C)CN=C(C23CC(N(Cc4ccc(C(F)(F)F)cc4)S(=O)(=O)c4ccc(F)cc4)(C2)C3)N1` (mixture of isomers) [Example 230], the IC50 was found to be 201 nM.
With `CC1(C)N=C(C23CC(N(Cc4ccc(Cl)cc4)S(=O)(=O)CC4CC(F)(F)C4)(C2)C3)N[C@H]1C(=O)NCCC(F)(F)F` (mixture of isomers) [Example 231], the IC50 came to 205 nM.
Turning to `CC1(C)N=C(C23CC(N(Cc4ccc(Cl)c(F)c4)S(=O)(=O)c4ccccc4)(C2)C3)N[C@H]1C(=O)NCC(O)C(F)(F)F` (mixture of isomers) [Example 233], the IC50 amounted to 209 nM.
For the molecule `C[C@]1(C(=O)N2CC3CC3C2)CN=C(C23CC(N(Cc4ccc(C(F)(F)F)cc4)S(=O)(=O)c4ccc(F)cc4)(C2)C3)N1` (mixture of isomers) [Example 234], the IC50 is 211 nM.
As for `CC(NC(=O)[C@@]1(C)CN=C(C23CC(N(Cc4ccc(C(F)(F)F)cc4)S(=O)(=O)c4ccc(F)cc4)(C2)C3)N1)C1CCC1` (mixture of isomers) [Example 238], the figure is 221 nM.
On to `CC(C)NC(=O)[C@H]1NC(C23CC(N(Cc4ccc(Cl)c(F)c4)S(=O)(=O)c4ccccc4)(C2)C3)=NC1(C)C` (mixture of isomers) [Example 240], for which the IC50 was 235 nM.
Turning to `Cn1ccc(S(=O)(=O)N(Cc2ccc(Cl)cc2)C23CC(C4=NC(C)(C)[C@H](C(=O)NCCC(F)(F)F)N4)(C2)C3)n1` (mixture of isomers) [Example 241], the IC50 was 243 nM.
With `CC1(C)N=C(C23CC(N(Cc4ccc(Cl)c(F)c4)S(=O)(=O)c4ccccc4)(C2)C3)N[C@H]1C(=O)NC12CC(C(F)(F)F)(C1)C2` (mixture of isomers) [Example 242], the IC50 worked out at 248 nM.
As for `CC(C)NC(=O)[C@@]1(C)CN=C(C23CC(N(Cc4ccccc4)S(=O)(=O)c4ccc(F)cc4)(C2)C3)N1` (mixture of isomers) [Example 243], the figure is 251 nM; as for `C[C@]1(C(=O)N2CCCCC2)CN=C(C23CC(N(Cc4ccc(C(F)(F)F)cc4)S(=O)(=O)c4ccc(F)cc4)(C2)C3)N1` (mixture of isomers) [Example 244], 252 nM; as for `CC1N=C(C23CC(N(Cc4ccc(C(F)(F)F)cc4)S(=O)(=O)c4ccc(F)cc4)(C2)C3)N[C@@]1(C)C(=O)NCC1CCC1` (mixture of isomers) [Example 245], 253 nM.
With `CC1(C)N=C(C23CC(N(Cc4ccc(C#N)cc4)S(=O)(=O)c4ccccc4)(C2)C3)N[C@H]1C(=O)NCCC(F)(F)F` (mixture of isomers) [Example 246], the IC50 was determined as 258 nM.
As for `C[C@@]1(C(=O)NCC2CCC2)CN=C(C23CC(N(Cc4ccc(C(F)(F)F)cc4)S(=O)(=O)c4ccc(F)cc4)(C2)C3)N1` (mixture of isomers) [Example 247], the figure is 262 nM; as for `CC1(C)N=C(C23CC(N(Cc4ccc(Cl)c(F)c4)S(=O)(=O)c4ccccc4)(C2)C3)N[C@@H]1C(=O)N1CCC(F)(F)CC1` (mixture of isomers) [Example 248], 275 nM.
On to `CC1(C)N=C(C23CC(N(Cc4ccc(Cl)c(F)c4)S(=O)(=O)c4ccccc4)(C2)C3)N[C@H]1C(=O)N1CC2(CCC2(F)F)C1` (mixture of isomers) [Example 249], for which the IC50 was 280 nM.
As for `CC(C)NC(=O)[C@@]1(C)CN=C(C23CC(N(Cc4ccc(C(F)(F)F)cc4)S(=O)(=O)c4ccc(F)cc4)(C2)C3)N1` (mixture of isomers) [Example 250], the IC50 turned out to be 286 nM.
On to `CC1(C)N=C(C23CC(N(Cc4ccc(C(F)(F)F)cc4)S(=O)(=O)c4ccc(F)cc4)(C2)C3)N[C@@H]1C(=O)NCCC(F)(F)F` (mixture of isomers) [Example 251], for which the IC50 came to 307 nM.
In the case of `CC(C)S(=O)(=O)N(Cc1ccc(Cl)cc1)C12CC(C3=NC(C)(C)[C@H](C(=O)NCCC(F)(F)F)N3)(C1)C2` (mixture of isomers) [Example 252], the IC50 came out at 317 nM.
`C[C@]1(C(=O)N2CC3(CCC3)C2)CN=C(C23CC(N(Cc4ccc(C(F)(F)F)cc4)S(=O)(=O)c4ccc(F)cc4)(C2)C3)N1` (mixture of isomers) [Example 253]: the IC50 worked out at 323 nM.
For the molecule `CC(C)NC(=O)[C@@]1(C)CN=C(C23CC(N(Cc4ccc(C(F)(F)F)cc4)S(=O)(=O)c4ccccc4)(C2)C3)N1` (mixture of isomers) [Example 254], the IC50 was 333 nM.
Take `CC1(C)N=C(C23CC(N(Cc4ccc(C(F)(F)F)cc4)S(=O)(=O)c4ccc(F)cc4)(C2)C3)N[C@@]1(C)C(=O)NCCC(F)(F)F` (mixture of isomers) [Example 255]: the IC50 is 341 nM.
On to `CN(CC1CCC1)C(=O)[C@@]1(C)CN=C(C23CC(N(Cc4ccc(C(F)(F)F)cc4)S(=O)(=O)c4ccc(F)cc4)(C2)C3)N1` (mixture of isomers) [Example 256], for which the IC50 was determined as 342 nM.
As to `CC1(C)N=C(C23CC(N(Cc4ccc(Cl)c(F)c4)S(=O)(=O)c4ccccc4)(C2)C3)N[C@H]1C(=O)N1CCOCC1` (mixture of isomers) [Example 257], the IC50 worked out at 348 nM.
As for `CC(C)NC(=O)[C@@]1(C)CN=C(C23CC(N(Cc4ccccc4)S(=O)(=O)c4ccccc4)(C2)C3)N1` (mixture of isomers) [Example 258], the figure is 362 nM; as for `C[C@]1(C(=O)NCC(F)(F)F)CN=C(C23CC(N(Cc4ccc(C(F)(F)F)cc4)S(=O)(=O)c4ccc(F)cc4)(C2)C3)N1` (mixture of isomers) [Example 260], 370 nM; as for `COCCS(=O)(=O)N(Cc1ccc(Cl)cc1)C12CC(C3=NC(C)(C)[C@H](C(=O)NCCC(F)(F)F)N3)(C1)C2` (mixture of isomers) [Example 261], 386 nM.
For the molecule `C[C@]1(C(=O)N2CCCC2)CN=C(C23CC(N(Cc4ccc(C(F)(F)F)cc4)S(=O)(=O)c4ccc(F)cc4)(C2)C3)N1` (mixture of isomers) [Example 262], the IC50 was determined as 395 nM.
Take `CC1(C)CCN(C(=O)[C@@]2(C)CN=C(C34CC(N(Cc5ccc(C(F)(F)F)cc5)S(=O)(=O)c5ccc(F)cc5)(C3)C4)N2)C1` (mixture of isomers) [Example 264]: the IC50 was 404 nM.
Regarding `CC1N=C(C23CC(N(Cc4ccc(C(F)(F)F)cc4)S(=O)(=O)c4ccc(F)cc4)(C2)C3)N[C@@]1(C)C(=O)NCCC(F)(F)F` (mixture of isomers) [Example 265], the IC50 amounted to 408 nM.
As for `CC1(CNC(=O)[C@@]2(C)CN=C(C34CC(N(Cc5ccc(C(F)(F)F)cc5)S(=O)(=O)c5ccc(F)cc5)(C3)C4)N2)CCC1` (mixture of isomers) [Example 267], the figure is 424 nM.
For `C[C@]1(C(=O)NC2CCCCC2)CN=C(C23CC(N(Cc4ccc(C(F)(F)F)cc4)S(=O)(=O)c4ccc(F)cc4)(C2)C3)N1` (mixture of isomers) [Example 268], the IC50 was found to be 441 nM.
In the case of `CN(C)C(=O)[C@@]1(C)CN=C(C23CC(N(Cc4ccc(C(F)(F)F)cc4)S(=O)(=O)c4ccc(F)cc4)(C2)C3)N1` (mixture of isomers) [Example 269], the concentration for half-maximal inhibition (IC50) turned out to be 481 nM.
As to `C[C@]1(C(=O)NCc2ccccc2)CN=C(C23CC(N(Cc4ccc(C(F)(F)F)cc4)S(=O)(=O)c4ccc(F)cc4)(C2)C3)N1` (mixture of isomers) [Example 270], the IC50 worked out at 485 nM.
As for `CC1(C)N=C(C23CC(N(Cc4ccc(Cl)cc4)S(=O)(=O)C4CCOCC4)(C2)C3)N[C@H]1C(=O)NCCC(F)(F)F` (mixture of isomers) [Example 272], the figure is 524 nM; as for `CC1(C)N=C(C23CC(N(Cc4ccc(Cl)cc4)S(C)(=O)=O)(C2)C3)N[C@H]1C(=O)NCCC(F)(F)F` (mixture of isomers) [Example 274], 559 nM.
